Results from patent US8852648B2, “Delivery of biologically-active agents using volatile, hydrophobic solvents” (Rochal Industries, LLP, priority 2012, dated 2014).
Entries after “also recorded” stand apart in the source; their conditions may differ. Structures can show the parent of a compound that is named as a salt. Where two headings read alike, the source gives them in different places.

Experiments:
[1] = in water; cited from earlier work
[2] = Solubility in non-polar hydrophobic solvents ISO and HMDS; format: physicochemical; conditions: without reverse emulsion surfactant
Source text: For all formulations in the following Examples, each biologically-active agent was inherently insoluble in the non-polar, hydrophobic solvents tested, namely, isooctane (ISO) and hexamethyldisiloxane (HMDS). Solubility occurred in the presence of a reverse emulsion surfactant, with or without the presence of added water, to give optically clear, homogeneous solutions. Since the concentrations of the biologically-active agents (Active) were considerably less than that of the solvent used, the data in the Tables pertaining to all ingredients were rounded-off to the next highest number.

[3] = tested on: L929 mouse fibroblast cell; assay: Cytotoxicity testing, agar overlay with neutral red; conditions: for Zone Size / Grade (biological reactivity): 0.05 wt % AOT in Cavilon; for Zone Size: applied to agar surface; for Grade (biological reactivity): scale Grade 0 to Grade 4
Experimental: Also of consideration for application to animal and human skin is the potential of toxicity to mammalian cells for reverse emulsion surfactants such as AOT. […] […] Cavilon solution without AOT was used as a negative control.
The biological reactivity of L929 mouse fibroblast cell in response to the AOT Cavilon solution was determined. The monolayer of fibroblasts was cultured in an agar plate, and the cell viability was evaluated using a vital dye (neutral red). The AOT Cavilon solution was applied directly to the surface of the agar. Positive (Buna-N-Rubber) and negative (Negative Control Plastic, Cavilon solution) control articles were prepared to verify the proper functioning of the test system. The cultures were incubated at 37±1° C., in a humidified atmosphere containing 5±1% carbon dioxide. Zone of inhibition was measured, and biological reactivity (cellular degeneration and malformation) was rated on a scale from Grade 0 (No reactivity) to Grade 4 (Severe reactivity) at 24 and 48 hours. The experiment was run in triplicate.

[4] = tested on: albino rabbits; assay: Animal skin-irritation study, Draize scoring; format: in vivo, rabbit; conditions: Cavilon solution containing 0.5 wt % AOT
Experimental: Another concern with the use of a reverse emulsion surfactant for its application to mammalian skin is its potential to cause skin irritation. It has been reported that in water solution AOT can be irritating to skin (M. Changez and M. Varshney, Drug Development and Industrial Pharmacy, 26(5), 507-512 (2000)). To test if AOT is skin-irritating when used in a volatile, hydrophobic solvent with the presence of polymer, an animal skin-irritation study was conducted by Toxikon Corporation, Cavilon solution containing 0.5 wt % AOT was examined, and Cavilon solution was used as a negative control.
Three albino rabbits were used for the skin irritation study. The application sites were prepared by clipping the skin of the trunk free of hair within 24 h before application of the test and control substances. The animals were treated by applying an AOT-containing Cavilon solution and the Cavilon negative control (0.5 mL) directly onto skin over a skin area of approximate 6 cm^2. The test solution was applied to the skin on the left side of the spine and the control solution was applied to the skin on the right side of the spine. The AOT solution and the negative control were each applied sequentially to three sites, and observed at 6, 24, 48, and 72 h for signs of erythema and edema. Observations were scored according to the Draize Scale for Scoring. […]

[5] = tested on: Gram positive bacteria such as Staphylococcus aureus; conditions: reported, G. N. Kern; cited from earlier work
[6] = tested on: Gram negative bacteria such as Pseudomonas aeruginosa; conditions: reported, G. N. Kern; cited from earlier work
[7] = in water solution; cited from earlier work
[8] = tested on: Pseudomonas aeruginosa, ATCC 27853; assay: Zone of inhibition, antimicrobials in AOT and Cavilon, TSA plates; format: cell-based; conditions: for ZOI 24 h / ZOI 48 h / ZOI 72 h: agent with AOT in Cavilon polymer, HMDS/ISO, 0.1 mL per cylinder, Neosporin 100 μL; for ZOI behaviour in words: with AOT in Cavilon polymer, over three days
Experimental: (§1) All microbiological testing was done by INCELL Corporation, San Antonio, Tex. All zones of inhibition data were measured in mm.
(§2) The zones of inhibition testing for methicillin-resistant Staphylococcus aureus and Pseudomonas aeruginosa were performed as described below. The bacteria were purchased from ATCC and expanded in Tryptic soy broth overnight. Each of the bacteria cultures was then spread onto Tryptic soy agar (TSA) plates. Sterile cloning cylinders containing the biologically-active agent in a volatile, hydrophobic solvent (0.1 mL per cylinder) were placed on the TSA plates and allowed to air dry for 1 h at room temperature. Neosporin was used as a positive control. The TSA plates were observed and photographed after 24 h, 48 h, and 72 h. Images were used to measure zone of inhibition or areas of clearing surrounding the delivered material.
(§3) The polymer substrate chosen for the sustained release studies of biologically-active antimicrobial over time was Cavilon. The Cavilon solution is composed of a proprietary acrylate polymer and a smaller amount of polyphenylmethylsiloxane in HMDS and ISO. This was used as a negative control for all zone of inhibition studies (Tables 8-10).

[9] = tested on: methicillin-resistant Staphylococcus aureus, ATCC 700787; assay: as above; format: cell-based
Experimental: as §1, §2, §3

[10] = tested on: Candida albicans; conditions: reported, G. N. Kern; cited from earlier work
[11] = tested on: mammalian cells such as fibroblasts, kidney cells, and cancer cells; conditions: in water solution; cited from earlier work
[12] = tested on: Candida albicans, ATCC 10231; assay: Zone of inhibition, antimicrobials in AOT and Cavilon, TSA plates; format: cell-based; conditions: for ZOI 24 h / ZOI 48 h / ZOI 72 h: agent with AOT in Cavilon polymer, HMDS/ISO, 0.1 mL per cylinder, Roccal 1 %
Experimental: as §1
The zones of inhibition testing was also performed with Candida albicans, purchased from ATCC and expanded in Tryptic soy broth overnight. This fungi culture was diluted to 0.1 OD 600 units and spread onto TSA plates. Sterile cloning cylinders were placed on the TSA plates, charged with the biologically-active agent in a volatile, hydrophobic solvent (0.1 mL per cylinder) and allowed to air dry for 1 h at room temperature. A 1% Roccal solution was used as a positive control. The TSA plates were observed and photographed after 24 h, 48 h, and 72 h. Images were used to measure zone of inhibition or areas of clearing surrounding the delivered material.
as §3

[13] = 24 h, agent with AOT in Cavilon polymer, HMDS/ISO, 0.1 mL per cylinder, Neosporin 100 μL
[14] = 48 h, agent with AOT in Cavilon polymer, HMDS/ISO, 0.1 mL per cylinder, Neosporin 100 μL
[15] = 72 h, agent with AOT in Cavilon polymer, HMDS/ISO, 0.1 mL per cylinder, Neosporin 100 μL
[16] = with AOT in Cavilon polymer, over three days

For CCCCC(CC)CNC(=N)NC(=N)NCCCCCCNC(=N)NC(=N)NCC(CC)CCCC (stereo not shown) [ALEX, 1,1′-hexamethylenebis[5-(2-ethylhexyl)biguanide]dihydrochloride], the water solubility [1] is listed as 0.1%.

For CCCCCCCCCCCC(=O)[O-].[Na+] [SL, sodium dodecanoate], the “solubility in isooctane (ISO) and hexamethyldisiloxane (HMDS)” value [2] was “insoluble”.

With CCCCC(CC)COC(=O)CC(C(=O)OCC(CC)CCCC)S(=O)(=O)[O-].[Na+] (stereo not shown) [AOT, sodium bis(2-ethylhexyl)sulfosuccinate] the “Zone Size” value ([3]; 24 hours) was 0 cm, the “Grade (biological reactivity)” value ([3]; 24 hours) was 0 and the “Zone Size” value ([3]; 48 hours) was 0 cm. The “Grade (biological reactivity)” value ([3]; 48 hours) was 0, the “toxicity to mammalian cells, in words” value ([3]; AOT Cavilon solution, 0.5 wt % AOT) was “not toxic” and the “signs of erythema or edema” value ([4]; 0.5 mL on skin, observed at 6, 24, 48, and 72 h) was “None of the AOT solution sites presented any signs of erythema or edema”. For the same molecule, the skin irritation classification ([4]; Draize Scale) was “non-irritant”, the “antibacterial activity, in words” value [5] was “active” and the “antibacterial activity, in words” value [6] was “inactive”. For the same molecule, the “skin irritation, in words” value [7] was “irritating”, the “ZOI 24 h” value [8] was 8.18 mm and the “ZOI 48 h” value [8] was 8.22 mm. The “ZOI 72 h” value [8] was 11.2 mm, the “ZOI behaviour in words” value [8] was “considerably more effective against Pseudomonas aeruginosa than Neosporin; also recorded: highly effective” and the “ZOI 24 h” value [9] was 5.34 mm. The “ZOI 48 h” value [9] was 6.3 mm, the “ZOI 72 h” value [9] was 5.32 mm and the “ZOI behaviour in words” value [9] was “active”. The “antifungal activity, in words” value [10] was “effective”, the cytotoxic concentration [11] was 0.002 wt % and the “ZOI 24 h” value [12] was 12.7 mm. For the same molecule, the “ZOI 48 h” value [12] was 12.4 mm and the “ZOI 72 h” value [12] was 13.3 mm.

For O=[N+]([O-])[O-].[Ag+] [AgNO3, Silver Nitrate], the “ZOI 24 h” value [9, 13] was 8.16 mm, the “ZOI 48 h” value [9, 14] was 9 mm and the “ZOI 72 h” value [9, 15] was 8.18 mm. The “ZOI behaviour in words” value [9, 16] was “highly effective”.

In the case of NC[C@@H]1O[C@H](O[C@@H]2[C@@H](CO)OC(O[C@@H]3[C@@H](O)[C@H](N)C[C@H](N)[C@H]3OC3O[C@H](CN)[C@@H](O)[C@H](O)[C@H]3N)[C@@H]2O)[C@H](N)[C@@H](O)[C@@H]1O (stereo partly shown) [NEO, Neomycin Trisulfate], the “ZOI 24 h” value [8] is reported as 7.43 mm, the “ZOI 48 h” value [8] is reported as 6.41 mm and the “ZOI 72 h” value [8] is reported as 7.61 mm. The “ZOI 24 h” value [9, 13] was 8.95 mm, the “ZOI 48 h” value [9, 14] was 8.94 mm and the “ZOI 72 h” value [9, 15] was 9.71 mm. For the same molecule, the “ZOI behaviour in words” value [9, 16] was “highly effective”.

For N=C(NCCCCCCNC(=N)NC(=N)Nc1ccc(Cl)cc1)NC(=N)Nc1ccc(Cl)cc1.O=C(O)[C@H](O)[C@@H](O)[C@H](O)[C@H](O)CO.O=C(O)[C@H](O)[C@@H](O)[C@H](O)[C@H](O)CO [CHG, Chlorhexidine Digluconate], the “ZOI 24 h” value [8] was 2.77 mm, the “ZOI 48 h” value [8] was 0 mm and the “ZOI 72 h” value [8] was 0 mm. The “ZOI behaviour in words” value [8] was “less effective”, the “ZOI 24 h” value [9, 13] was 11.53 mm and the “ZOI 48 h” value [9, 14] was 11.03 mm. For the same molecule, the “ZOI 72 h” value [9, 15] was 11.67 mm, the “ZOI behaviour in words” value [9, 16] was “exceptional results” and the water solubility [1] was 20%.

For Clc1ccc(COC(Cn2ccnc2)c2ccc(Cl)cc2Cl)c(Cl)c1 (stereo not shown) [MICON, Miconazole Nitrate], the “ZOI 24 h” value [12] was 16.5 mm, the “ZOI 48 h” value [12] was 14.9 mm and the “ZOI 72 h” value [12] was 15 mm. The “ZOI behaviour in words” value [12, 16] was “superior to that of AOT by itself and PHMB with AOT”.
